The values below come from BindingDB's records for doi:10.1002/cbic.201600267 (Fairfield University, 2016).

pKi: −log10 of the molar value.

By pKi is commonly meant the Ki on a negative log10 scale, so that one unit is a factor of ten.

Chain of Beta-galactosidase (P00722 whole entry): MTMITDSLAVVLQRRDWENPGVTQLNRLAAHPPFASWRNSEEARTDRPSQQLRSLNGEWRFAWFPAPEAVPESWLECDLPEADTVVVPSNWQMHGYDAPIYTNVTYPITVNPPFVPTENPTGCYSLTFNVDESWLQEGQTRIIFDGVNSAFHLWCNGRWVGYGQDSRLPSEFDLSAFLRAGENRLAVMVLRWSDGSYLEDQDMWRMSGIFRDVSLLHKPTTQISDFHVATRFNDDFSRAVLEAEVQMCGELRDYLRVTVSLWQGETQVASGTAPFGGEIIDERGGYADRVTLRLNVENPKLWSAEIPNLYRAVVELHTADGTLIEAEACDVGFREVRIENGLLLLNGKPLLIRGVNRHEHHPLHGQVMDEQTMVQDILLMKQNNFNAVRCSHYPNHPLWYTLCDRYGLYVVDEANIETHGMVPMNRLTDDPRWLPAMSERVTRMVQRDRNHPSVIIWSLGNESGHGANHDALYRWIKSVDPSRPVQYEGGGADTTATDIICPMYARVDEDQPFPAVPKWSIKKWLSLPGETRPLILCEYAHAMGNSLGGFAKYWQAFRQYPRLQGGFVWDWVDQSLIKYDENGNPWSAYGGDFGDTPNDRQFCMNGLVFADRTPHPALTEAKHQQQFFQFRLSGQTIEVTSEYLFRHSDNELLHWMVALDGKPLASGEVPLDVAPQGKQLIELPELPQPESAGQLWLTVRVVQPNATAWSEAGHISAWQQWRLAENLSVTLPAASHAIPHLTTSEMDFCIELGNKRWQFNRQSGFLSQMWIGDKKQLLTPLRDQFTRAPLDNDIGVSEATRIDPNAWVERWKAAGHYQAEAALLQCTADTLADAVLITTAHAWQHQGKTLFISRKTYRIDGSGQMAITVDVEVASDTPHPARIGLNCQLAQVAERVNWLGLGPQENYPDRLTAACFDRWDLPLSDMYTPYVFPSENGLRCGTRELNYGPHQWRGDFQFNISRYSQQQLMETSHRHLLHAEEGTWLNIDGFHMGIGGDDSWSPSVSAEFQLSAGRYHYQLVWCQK

The test addresses Beta-galactosidase (Escherichia coli (strain K12), UniProt P00722). Kind of test: beta-Galactosidase Assay. Particulars: 30 °C. On the procedure:
Enzymatic activity of beta-galactosidase from Escherichia coli (1.2 x 10^-10 M) was measured using the colorimetric substrate ortho-nitrophenyl-b-galactoside ([ONPG]: 2500, 2000, 1500, 1000, 500, 250, 125 uM) in Z-Buffer (100 mM sodium phosphate at pH = 7, 10 mM KCl, 1 mM MgSO4) to which was added fresh 50 mM beta-mercaptoethanol at 30 °C. In a 96-well plate were combined a 5x stock solution of Z-buffer (containing 250 mM beta-mercaptoethanol) and 5x stock solutions of ONPG. Samples were adjusted to a final volume of 180 uL with water. Samples were equilibrated at 30 °C for 5 minutes on a Synergy H1 microplate reader. A 10x stock solution of enzyme (20 uL) was then injected into each well and the production of 2-nitrophenol was quantified at 410 nm over a period of 10 minutes.
Regarding `CC(C)S[C@@H]1O[C@H](CO)[C@H](O)[C@H](O)[C@H]1O` [IPTG], the pKi is 4.12.

On to `O=C(NCCOCCOCCOCCNC(=O)c1ccc(C(=O)OCCS[C@@H]2O[C@H](CO)[C@H](O)[C@H](O)[C@H]2O)c(C(c2ccccc2)c2ccccc2)c1)c1ccc(C(=O)c2ccccc2)cc1` [β-gal inhibitor, 13], for which the pKi was 5.52.

For `O=C(NCCOCCOCCOCCNC(=O)c1ccc(C(=O)OCCOCCS[C@@H]2O[C@H](CO)[C@H](O)[C@H](O)[C@H]2O)c(C(c2ccccc2)c2ccccc2)c1)c1ccc(C(=O)c2ccccc2)cc1` [β-gal inhibitor, 14], the pKi is 5.41.

For `O=C(NCCOCCOCCOCCNC(=O)c1ccc(C(=O)OCCOCCOCCOCCS[C@@H]2O[C@H](CO)[C@H](O)[C@H](O)[C@H]2O)c(C(c2ccccc2)c2ccccc2)c1)c1ccc(C(=O)c2ccccc2)cc1` [β-gal inhibitor, 15], the pKi is 5.23.
